# In patent US8466155B2, “Pyrimidines” (Boehringer Ingelheim International GmbH, priority 2009, dated 2013):
# Target: T1, PTK2 (Homo sapiens, UniProt Q05397)
# T1 construct: purchased Invitrogen PV3832
# Assay: PTK2 enzyme test, Assay 1 (DELFIA, PT60 antibody)
# Format: biochemical
# Details: 1 h pre-incubation, 1 h kinase reaction, values without *
# Experimental: This test uses active PTK2 enzyme (Invitrogen Code PV3832) and poly-Glu-Tyr (4:1, Sigma P-0275) as the kinase substrate. The kinase activity is detected through the phosphorylation of the substrate in a DELFIA™ assay. The phosphorylated substrate is detected with the europium-labelled phosphotyrosine antibody PT60 (Perkin Elmer, No.: AD00400).
# In order to determine concentration-activity curves with PTK2-inhibitors the compounds are serially diluted in 10% DMSO/H20 and 10 μL of each dilution are placed in each well of a 96-well microtitre plate (clear plate with a U-shaped base, Greiner No. 650101) (the inhibitors are tested in duplicates) and mixed with 10 μL/well of PTK2 kinase (0.01 μg/well). PTK2 kinase has been correspondingly diluted beforehand with kinase dilution buffer (20 mM TRIS/HCl pH 7.5, 0.1 mM EDTA, 0.1 mM EGTA, 0.286 mM sodium orthovanadate, 10% glycerol with the addition of freshly prepared BSA (fraction V, 1 mg/mL) and DTT (1 mM)). The test compound and the PTK2 kinase are pre-incubated for 1 h at RT and shaken at 500 revolutions per min. The reaction is started by the addition of 10 μL/well poly (Glu,Tyr) substrate (25 μg/well poly (Glu, Tyr), 0.05 μg/well biotinylated poly (Glu,Tyr) dissolved in 250 mM TRIS/HCl pH 7.5, 9 mM DTT)—the final concentration of DMSO is 2%. Then 20 μL of ATP Mix (30 mM TRIS/HCl pH 7.5, 0.02% Brij, 0.2 mM sodium orthovanadate, 10 mM magnesium acetate, 0.1 mM EGTA, 1× phosphatase inhibitor cocktail 1 (Sigma, No.: P2850), 50 μM ATP (Sigma, No.: A3377; 15 mM stock solution)) are added. After 1 h of kinase reaction (the plates are shaken at 500 rpm), the reaction is stopped by the addition of 12 μL/well 100 mM EDTA, pH 8.0 and shaken for a further 5 min at RT (500 rpm). 55 μL of the reaction mixture are transferred into a streptavidin plate (Strepta Well High Bind (transparent, 96-well) made by Roche, No.: 11989685001) and incubated for 1 h at RT (shaking at 500 rpm). Then the microtitre plate is washed three times with 200 μL/well D-PBS (Invitrogen, No. 14190). 100 μL of a solution containing DELFIA Eu-N1 Anti-Phosphotyrosine PT60 antibody (Perkin Elmer, No.: AD0040, diluted 1:2000 in DELFIA test buffer (Perkin Elmer, No.: 1244-111)) is then added and the mixture is incubated for 1 h at RT (shaking at 500 rpm). Then the plate is washed three times with 200 μL/well DELFIA washing buffer (Perkin Elmer, No.: 1244-114), 200 μL/well strengthening solution (Perkin Elmer, No.: 1244-105) are added and the mixture is incubated for 10 min at RT (shaking at 300 rpm).
# The time-delayed europium fluorescence is then measured in a microtitre plate reader (VICTOR^3, Perkin Elmer). […] Wells that contain test buffer instead of enzyme are used as a control of the background kinase activity.
# The IC50 values are determined from analyses of the concentration activity by iterative calculation with the aid of a sigmoid curve analysis algorithm (FIFTY, based on GraphPAD Prism Version 3.03) with a variable Hill coefficient.
# T1 sequence (Q05397 whole entry): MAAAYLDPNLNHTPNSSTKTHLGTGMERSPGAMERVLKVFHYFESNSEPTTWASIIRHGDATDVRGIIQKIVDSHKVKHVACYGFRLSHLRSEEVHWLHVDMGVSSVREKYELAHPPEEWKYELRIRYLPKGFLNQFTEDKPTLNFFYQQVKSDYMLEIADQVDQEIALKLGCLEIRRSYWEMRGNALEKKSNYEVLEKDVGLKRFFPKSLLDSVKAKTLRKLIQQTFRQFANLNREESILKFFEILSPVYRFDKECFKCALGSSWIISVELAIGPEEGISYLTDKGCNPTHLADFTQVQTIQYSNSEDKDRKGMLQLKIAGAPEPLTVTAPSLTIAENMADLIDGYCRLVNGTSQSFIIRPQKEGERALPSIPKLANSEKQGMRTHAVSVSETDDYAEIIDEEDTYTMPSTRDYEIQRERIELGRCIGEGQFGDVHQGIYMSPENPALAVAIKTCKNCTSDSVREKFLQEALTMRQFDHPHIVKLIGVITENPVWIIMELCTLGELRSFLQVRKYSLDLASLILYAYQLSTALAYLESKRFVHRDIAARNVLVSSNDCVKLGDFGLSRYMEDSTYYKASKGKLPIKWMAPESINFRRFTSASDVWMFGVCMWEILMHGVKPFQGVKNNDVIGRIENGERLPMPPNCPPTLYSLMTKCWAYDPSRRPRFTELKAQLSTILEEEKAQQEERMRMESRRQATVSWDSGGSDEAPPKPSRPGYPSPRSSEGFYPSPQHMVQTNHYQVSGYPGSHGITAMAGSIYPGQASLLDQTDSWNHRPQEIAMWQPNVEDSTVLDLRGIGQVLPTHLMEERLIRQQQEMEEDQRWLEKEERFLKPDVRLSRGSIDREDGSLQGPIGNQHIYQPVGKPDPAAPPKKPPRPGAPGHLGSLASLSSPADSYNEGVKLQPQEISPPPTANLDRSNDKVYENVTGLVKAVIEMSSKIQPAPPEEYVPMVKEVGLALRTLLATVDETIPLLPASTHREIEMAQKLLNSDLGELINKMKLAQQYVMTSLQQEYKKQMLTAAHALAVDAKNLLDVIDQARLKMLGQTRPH
row,IC50 [nM],Structure (SMILES)
1,0.37,COc1cc(C(=O)NCCN(C)C)c(F)cc1Nc1ncc(C(F)(F)F)c(O[C@@H]2CCC[C@H]2NS(C)(=O)=O)n1 [Example 99]
2,22,COc1cc(C(=O)NC2CCN(C)CC2)c(Cl)cc1Nc1ncc(C(F)(F)F)c(O[C@@H]2CCC[C@H]2NS(=O)(=O)C2CC2)n1 [Example 48]
3,2,COc1cc(C(=O)NCCN2CCN(C)CC2)c(F)cc1Nc1ncc(Cl)c(O[C@@H]2Cc3ccccc3[C@H]2N(C)S(C)(=O)=O)n1 [Example 57]
4,6,COc1cc(C(=O)NCCn2ccnc2C)c(F)cc1Nc1ncc(Cl)c(O[C@@H]2Cc3ccccc3[C@H]2N(C)S(C)(=O)=O)n1 [Example 52]
5,4,COc1cc(C(=O)NCCN2CCN(C)CC2)c(F)cc1Nc1ncc(C(F)(F)F)c(O[C@@H]2Cc3ccccc3[C@H]2N(C)S(C)(=O)=O)n1 [Example 5]
6,103,COc1cc(C(=O)NC2CCN(C)CC2)c(F)cc1Nc1ncc(C(F)(F)F)c(O[C@@H]2CCC[C@H]2NS(=O)(=O)C(F)(F)F)n1 [Example 107]
7,1,Cc1nc2ccc(Nc3ncc(C(F)(F)F)c(O[C@@H]4CCC[C@H]4NS(C)(=O)=O)n3)cc2o1 [Example 83]
8,0.54,COc1cc(C(=O)NCCN(C)C)c(F)cc1Nc1ncc(C(F)(F)F)c(O[C@@H]2Cc3ccccc3[C@H]2NS(C)(=O)=O)n1 [Example 96]
9,12,COc1cc(C(=O)NCC2CC2)ccc1Nc1ncc(C(F)(F)F)c(O[C@@H]2Cc3ccccc3[C@H]2N(C)S(C)(=O)=O)n1 [Example 21]
10,0.3,"COc1cc(C(=O)NN2CCN(C)CC2)c(F)cc1Nc1ncc(C(F)(F)F)c(O[C@@H]2CCC[C@H]2N(C)S(C)(=O)=O)n1 [Example 101, 2-fluoro-4-{4-[(1R,2R)-2-(methanesulphonyl-methyl-amino)-cyclopentyloxy]-5-trifluoromethyl-pyrimidin-2-ylamino}-5-methoxy-N-(4-methyl-piperazin-1-yl)-benzamide]"
11,3,COc1cc(C(=O)NCCCN(C)C)ccc1Nc1ncc(C(F)(F)F)c(O[C@@H]2Cc3ccccc3[C@H]2N(C)S(C)(=O)=O)n1 [Example 20]
12,1,CONC(=O)c1cc(OC)c(Nc2ncc(Cl)c(O[C@@H]3Cc4ccccc4[C@H]3N(C)S(C)(=O)=O)n2)cc1Cl [Example 38]
13,0.45,COc1cc(C(=O)NCCN(C)C)c(Cl)cc1Nc1ncc(C(F)(F)F)c(O[C@@H]2Cc3ccccc3[C@H]2NS(C)(=O)=O)n1 [Example 86]
14,4,COc1cc(C(=O)NN2CCN(C)CC2)ccc1Nc1ncc(C(F)(F)F)c(O[C@@H]2Cc3ccccc3[C@H]2N(C)S(C)(=O)=O)n1 [Example 19]
15,6,COc1cc(C(=O)NCC(C)(C)C)c(Cl)cc1Nc1ncc(Cl)c(O[C@@H]2Cc3ccccc3[C@H]2N(C)S(C)(=O)=O)n1 [Example 39]
16,4,COc1cc(C(=O)NCCn2ccnc2C)ccc1Nc1ncc(C(F)(F)F)c(O[C@@H]2Cc3ccccc3[C@H]2N(C)S(C)(=O)=O)n1 [Example 13]
17,5,COc1cc(C(=O)NCCn2ccnc2C)c(F)cc1Nc1ncc(C(F)(F)F)c(O[C@@H]2Cc3ccccc3[C@H]2N(C)S(C)(=O)=O)n1 [Example 4]
18,0.56,COc1cc(C(=O)NCCN(C)C)ccc1Nc1ncc(C(F)(F)F)c(O[C@@H]2Cc3ccccc3[C@H]2NS(C)(=O)=O)n1 [Example 95]
19,4,COc1cc(C(=O)NC[C@@H](O)CO)ccc1Nc1ncc(C(F)(F)F)c(O[C@@H]2Cc3ccccc3[C@H]2N(C)S(C)(=O)=O)n1 [Example 50]
20,3,"COc1cc(C(=O)N[C@H]2CCN(C)C[C@@H]2OC)c(F)cc1Nc1ncc(C(F)(F)F)c(O[C@@H]2Cc3ccccc3[C@H]2N(C)S(C)(=O)=O)n1 [Example 31, 2-fluoro-4-{4-[(1R,2R)-1-(methanesulphonyl-methyl-amino)-indan-2-yloxy]-5-trifluoromethyl-pyrimidin-2-ylamino}-5-methoxy-N-((3S,4S)-3-methoxy-1-methyl-piperidin-4-yl)-benzamide]"
21,5,COc1cc(C(=O)NC[C@H](O)CO)ccc1Nc1ncc(C(F)(F)F)c(O[C@@H]2Cc3ccccc3[C@H]2N(C)S(C)(=O)=O)n1 [Example 49]
22,0.37,COc1cc(C(=O)NCCN(C)C)c(Cl)cc1Nc1ncc(C(F)(F)F)c(O[C@@H]2CCC[C@H]2NS(C)(=O)=O)n1 [Example 78]
23,3,COc1cc(C(=O)NCCN(C)C)c(Cl)cc1Nc1ncc(Cl)c(O[C@@H]2Cc3ccccc3[C@H]2N(C)S(C)(=O)=O)n1 [Example 40]
24,10,COc1cc(C(=O)NC[C@H](O)CO)c(F)cc1Nc1ncc(C(F)(F)F)c(O[C@@H]2Cc3ccccc3[C@H]2N(C)S(C)(=O)=O)n1 [Example 65]
25,4,COc1cc(C(=O)NCC(O)CO)ccc1Nc1ncc(C(F)(F)F)c(O[C@@H]2Cc3ccccc3[C@H]2N(C)S(C)(=O)=O)n1 (stereo partly drawn) [Example 12]
26,2,COc1cc(C(=O)NN2CCN(C)CC2)ccc1Nc1ncc(C(F)(F)F)c(O[C@@H]2CCC[C@H]2NS(C)(=O)=O)n1 [Example 73]
27,13,COc1cc(C(=O)NC[C@@H](O)CO)c(F)cc1Nc1ncc(Cl)c(O[C@@H]2Cc3ccccc3[C@H]2N(C)S(C)(=O)=O)n1 [Example 51]
28,3,COc1cc(C(=O)NCC(C)(C)C)c(F)cc1Nc1ncc(C(F)(F)F)c(O[C@@H]2Cc3ccccc3[C@H]2N(C)S(C)(=O)=O)n1 [Example 3]
29,17,CNC(=O)c1cc(OC)c(Nc2ncc(C(F)(F)F)c(O[C@@H]3Cc4ccccc4[C@H]3N(C)S(C)(=O)=O)n2)cc1F [Example 6]
30,0.29,COc1cc(C(=O)NC2CCN(C)CC2)ccc1Nc1ncc(C(F)(F)F)c(O[C@@H]2CCCC[C@H]2N(C)S(C)(=O)=O)n1 [Example 76]
